Measured values as given in the NIST ThermoML archive (doi:10.1016/j.jct.2014.01.020).

Assay: molar heat capacity at constant pressure; xn = mol fraction of the nth substance listed
Settings: 293.15 K, Liquid, Flow calorimetry

C1CCCCC1 [cyclohexane] + CCCCO
molar heat capacity at constant pressure [J/K/mol]
Settings	x2 = 0	x2 = 0.1013	x2 = 0.2003	x2 = 0.3002	x2 = 0.4013	x2 = 0.4997	x2 = 0.6002	x2 = 0.6999	x2 = 0.7998	x2 = 0.8999
100 kPa	154.7	164.6	166.7	168.6	170.9	171.2	171.4	172.1	172.2	172.8
5000 kPa	153.8	163.3	165.3	167.1	169.5	169.7	170.2	170.6	171	171.9
10000 kPa	152.5	161.2	163.5	165.4	167.7	168.2	168.6	169.4	169.5	170.4
15000 kPa	150.5	159.1	161	163.4	165.5	165.9	166.3	168	168.3	169.1
20000 kPa	149.7	157.5	159.3	161.7	164.4	164.9	164.8	167.1	167.1	167.7
25000 kPa	147.7	155.9	157.8	160.3	162.8	163.1	163.4	–	–	–
